Measured values as given in BindingDB's records for PubMed 3009454 (University of Wisconsin, 1986).

target: T1, Aryl hydrocarbon receptor (Mus musculus, UniProt P30561); experiment: Binding Assay; conditions: pH 7.5; 0 °C
T1 sequence (P30561 whole entry): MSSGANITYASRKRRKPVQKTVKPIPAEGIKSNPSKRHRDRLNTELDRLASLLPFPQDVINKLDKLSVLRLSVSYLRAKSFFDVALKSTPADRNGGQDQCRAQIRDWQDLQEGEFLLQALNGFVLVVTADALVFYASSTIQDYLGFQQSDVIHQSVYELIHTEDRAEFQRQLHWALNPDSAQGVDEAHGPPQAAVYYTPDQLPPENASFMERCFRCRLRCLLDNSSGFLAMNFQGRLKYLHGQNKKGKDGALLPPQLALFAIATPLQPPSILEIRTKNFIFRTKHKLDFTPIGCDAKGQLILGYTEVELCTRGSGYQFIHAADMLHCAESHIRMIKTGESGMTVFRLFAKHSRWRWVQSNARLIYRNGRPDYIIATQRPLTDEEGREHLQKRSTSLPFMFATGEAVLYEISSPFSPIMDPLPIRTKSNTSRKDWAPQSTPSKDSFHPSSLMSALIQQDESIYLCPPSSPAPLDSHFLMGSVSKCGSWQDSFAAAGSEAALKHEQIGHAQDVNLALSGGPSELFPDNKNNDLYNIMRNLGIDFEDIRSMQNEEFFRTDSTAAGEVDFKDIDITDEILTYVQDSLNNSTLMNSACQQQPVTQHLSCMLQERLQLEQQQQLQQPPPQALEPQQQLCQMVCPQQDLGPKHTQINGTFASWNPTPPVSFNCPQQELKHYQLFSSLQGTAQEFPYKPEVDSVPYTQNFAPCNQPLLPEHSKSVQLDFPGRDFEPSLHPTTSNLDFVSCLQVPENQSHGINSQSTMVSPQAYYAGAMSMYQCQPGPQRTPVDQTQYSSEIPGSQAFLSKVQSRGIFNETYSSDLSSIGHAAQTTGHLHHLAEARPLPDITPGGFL
Method: The equilibrium dissocation constants, KD values for the photoaffinity ligands were determined by a competitive binding assay.

SMILES | Kd
[N-]=[N+]=Nc1cc(Cl)cc2c1Oc1cc(Cl)c(Cl)cc1O2 [Photoaffinity ligand, 1] | 0.44 nM
[N-]=[N+]=Nc1ccc(NCCCCCC(=O)NCc2c(Cl)c(Cl)cc3c2Oc2cc(Cl)c(Cl)cc2O3)c([N+](=O)[O-])c1 [Photoaffinity ligand, 8] | 11 nM
[N-]=[N+]=Nc1cc2c(cc1Cl)Oc1cc(Cl)c(Cl)cc1O2 [Photoaffinity ligand, 3] | 0.49 nM
[N-]=[N+]=Nc1ccc(C(=O)NCc2c(Cl)c(Cl)cc3c2Oc2cc(Cl)c(Cl)cc2O3)cc1 [Photoaffinity ligand, 6] | 8.1 nM
[N-]=[N+]=Nc1ccc([N+](=O)[O-])c(C(=O)NCc2c(Cl)c(Cl)cc3c2Oc2cc(Cl)c(Cl)cc2O3)c1 [Photoaffinity ligand, 5] | 13 nM
[N-]=[N+]=Nc1cc2c(cc1I)Oc1cc(Br)c(Br)cc1O2 [Photoaffinity ligand, 4] | 0.76 nM
[N-]=[N+]=Nc1ccc(C(=O)NCc2c(Cl)c(Cl)cc3c2Oc2cc(Cl)c(Cl)cc2O3)c(O)c1 [Photoaffinity ligand, 7] | 113 nM
[N-]=[N+]=Nc1c(I)c(Cl)cc2c1Oc1cc(Cl)c(Cl)cc1O2 [Photoaffinity ligand, 2] | 2.1 nM
